90 molecules from a melting point compilation (Tetko et al.; mined from patent text by program, amines drawn as free bases though some values may be those of a salt) can be followed below.

SMILES strings stand for the structures.

In turn, `Nc1ccc(-c2ccc(Cl)cc2)c(Cl)n1` displayed a melting point of 178 to 182 °C.
As for `NC(=O)N(O)CCOCc1ccsc1`, the figure is 99 to 100 °C; as for `CCC(Oc1ccc(C)c(C)c1)C(=O)OC1CC(O)C=C2C=CC(C)C(CCC3CC(O)CC(=O)O3)C21` (mixture of isomers), 137 to 139 °C; as for `CC(=O)SCCC1(C)C(=O)N2CCCC(C(=O)O)N2C1=O` (stereo not given), 142 to 143 °C.
The value for `NC(N)=Nc1nc(-c2ccc(CNC(=O)CS(=O)Cc3ccco3)o2)cs1` (stereo not given) was 208 to 209 °C; that for `Cc1nc(-c2ccccc2)nc(-c2ccncc2)c1CO` was 175 to 176 °C.
`O=CNc1ccc(C=O)cc1[N+](=O)[O-]` gave a melting point of 183 to 191 °C.
The value for `Cc1c(Cl)c(Oc2c(Cl)cc(C(F)(F)F)cc2Cl)nn1C(=O)NC(C)C` was 109 to 111 °C; that for `CC(COc1ccccc1C1NC(C(=O)O)CS1)O[N+](=O)[O-]` (stereo not given) was 127 to 130 °C.
As for `Cc1c(N2CCN(C(=O)OC(C)(C)C)CC2)nn2c(-c3ccncc3)c(-c3ccc(F)cc3)nc2c1C`, the figure is 231 to 233 °C; as for `COC(=O)CN1CCC[C@H](OCc2cc(C(F)(F)F)cc(C(F)(F)F)c2)[C@@H]1c1ccccc1` (relative stereo), 60 to 70 °C; as for `CC(C)(C)c1ccc(CC(=O)CCC2CCCCC2)cc1NC(=O)CC1c2ccccc2Oc2ccccc21`, 134 to 135 °C.
As for `CCN1CC(=O)N(c2ccccc2SC)C1=S`, the figure is 128 to 131 °C; as for `O=C1O[C@@H]2C[C@@]1(O)c1cc(Cc3ccccc3)sc1[C@H]2O`, 116 to 118 °C.
Consider `CCCCCCCCCCCCCCOCC(C=CC(=O)N(C)C)(C=CC(=O)N(C)C)COCCCCCCCCCCCCCC`, for which the melting point was in the range of 59 to 61 °C.
The molecule `CC(C)(C)c1ccc(-c2sc(N)c(C(=O)c3ccc(Cl)cc3)c2CN(C2CCCCC2)C2CCCCC2)cc1` gave a melting point of 180 to 184 °C.
As for `Cn1ccc2cc(C(=N)Nc3cccc(NC(=O)C=Cc4ccccc4)c3)ccc21`, the figure is 143 to 148 °C; as for `c1nc(NCCN2CCOCC2)c2sc3nc(N4CCCC4)c4c(c3c2n1)CCOC4`, 189 to 191 °C.
`CCOC(=O)c1cc2c(cn1)[nH]c1ccc(N)cc12` returned a melting point of 226 to 228 °C.
Turning to `NC(=O)c1ccc(-c2ccc3nnn(Cc4ccc5ncsc5c4)c3n2)cc1Cl`, the melting point fell in the range of 238 to 240 °C.
In turn, `O=C(O)c1ccc(CN(Cc2ccc(C(F)(F)P(=O)(O)O)c(Br)c2)S(=O)(=O)c2ccccc2)cc1` registered a melting point of 160 to 162 °C.
The value for `O=c1c2ccc(-c3nnn[nH]3)cc2oc2ccc(OCCCO)cc12` was 270 °C; that for `COc1cc(OC)nc(NC(=O)NS(=O)(=O)c2ccccc2C2=NOCCO2)n1` was 189 °C.
As for `CC1(C)CC(=O)c2c(-c3ccccc3)cn(-c3ccccn3)c2C1`, the figure is 160 to 162 °C.
On to `CC(C)(CCCCCCC(C)(C)CCC(=O)O)CCC(=O)O`, for which the melting point was 88 to 89 °C.
The molecule `COC(=O)c1nc(Cc2ccccc2)n2c1CN=C(c1ccccc1Cl)c1cc(Cl)ccc1-2` gave a melting point of 155 to 158 °C.
As for `CCCCCCC(=Cc1ccc(-c2nnn[nH]2)cc1)C(OC)=C1SC(=S)NC1=O`, the figure is > 300 °C; as for `N#Cc1ccc(-c2ccc(Br)o2)nc1`, 196 °C.
In turn, `O=C1CCC(N2C(=O)c3cccc(OCc4ccc(CN5CCC(c6ccc(Cl)cc6)CC5)cc4)c3C2=O)C(=O)N1` (stereo not given) registered a melting point of 236 to 238 °C.
The molecule `Cc1c(F)c(N2CCNC(C)C2)cc2c1c(=O)c(C(=O)O)cn2C1CC1` (stereo not given) yielded a melting point of 189 to 192 °C.
The value for `COc1cccc2c(Cl)c(C)c(C)nc12` was 130 °C; that for `COCC1=C(C(=O)OC)C(c2ccccc2Cl)c2c[nH]nc2N1` (stereo not given) was 160 °C.
The value for `COc1cccc(/C=C/C2=CCN(Cc3c[nH]c4ncccc34)CC2)c1` was 186 to 188 °C; that for `Cc1cc(Cn2nc(C(F)(F)F)cc2C(F)(F)F)ccc1N1C(=O)c2cccc(F)c2C1=O` was 158 to 159 °C; that for `CCOC(=O)C(C)=C(C)NC(=O)Nc1ccc(Cl)c(C(=O)OCC)c1` was 88 to 91 °C.
As for `CC(C)(CO)CCCC(O)CCC(O)CCCC(C)(C)CO` (stereo not given), the figure is 96 to 97 °C; as for `CCCCCCCCNC(=O)/C=C\SC(=O)c1ccc(F)cc1`, 87 to 91 °C.
`O=c1c2cc(F)c(N3CCCC3)cc2n(CC2CC2)c(=O)n1OCc1ccccc1` showed a melting point of 198 to 200 °C.
With `COc1ccc(C(=O)Nc2ccc(C(C)(C)CN3CCOC3=O)cc2)cc1OC`, the melting point lay in the range of 190 to 191 °C.
Take `N#Cc1ccccc1C(=O)c1ccc(S)cc1`: the melting point is 102 °C.
`CC(=O)OC1CCc2oc3ccc(Br)cc3c(=O)c2C1` (stereo not given) had a melting point of 178 °C.
As for `CCOC(=O)c1cnc(SC)nc1NCc1ccc(OC)c(Cl)c1`, the figure is 82 to 83 °C; as for `CCCc1c(OCCCOc2cccc3c2CCCC3)ccc2c1OC(CCCC=O)(CCCC=O)CC2=O`, 72 to 73 °C; as for `CN1CCN(C2=Nc3ccccc3Nc3c(Cl)cccc32)CC1`, 168 to 170 °C.
As for `COc1cc2c(O)c3c(c(-c4ccc5c(c4)OCO5)c2cc1OC)C(=O)OC3`, the figure is 280 to 282 °C.
As for `CCc1c(C(=O)c2cc(C)cc(C)c2)n(CC2CC=CC2)c(=O)[nH]c1=O`, the figure is 209 to 210 °C.
Molecule `CC(=O)Nc1ccc(NC(=O)CN2CCC(Cc3ccc(F)cc3)CC2)cc1` showed a melting point of 173 to 180 °C.
The molecule `CCc1ccc2oc(=O)c([N+](=O)[O-])c(O)c2c1` came in with a melting point of 114 to 115 °C.
As for `C#Cc1ccc(NC(=O)OC(C)(C)C)c([N+](=O)[O-])c1`, the figure is 102 °C; as for `CC(CN(C)C)Nc1ccnc2cc3c(cc12)OCO3` (stereo not given), 71 to 72 °C.
For the molecule `CCCCn1ccc(-c2ccc3c(c2)OCCN3[C@H]2CC[C@H](O)CC2)c(Cl)c1=O`, the melting point was 178 °C.
The value for `CCCS(=O)(=O)c1nc2cc(-n3nc(C)n(C)c3=O)c(F)cc2s1` was 196 to 198 °C; that for `CCCCCCCCc1ccc(OCC(=O)Cn2ncc3ccccc32)cc1` was 66 to 67 °C.
Take `CCCCCCCCCCc1ccnc(C(=O)NCC(=O)OCC)c1`: the melting point was 29 to 30 °C.
The value for `CCCc1c(OCCCCCC(=O)O)ccc(C(C)=O)c1O` was 62 to 64 °C; that for `CS(=O)(=O)c1ccc(Oc2ccc(C(=O)c3ccccc3)cc2)cc1` was 164 to 165 °C.
Regarding `CC(=O)c1ccc(NS(C)(=O)=O)c(Oc2ccccc2S(C)(=O)=O)c1`, the melting point fell in the range of 189 to 191 °C.
`OC(c1ccccc1)c1ccc(Nc2nccc(-c3cnc4ccccn34)n2)cc1` (stereo not given) gave a melting point of 213 to 216 °C.
Turning to `CCCc1nn(-c2ccc(C(F)(F)F)cn2)cc1CCCOc1c(CC(=O)O)cccc1OC`, the melting point was in the range of 122 to 123 °C.
In turn, `O=C(O)c1cc2c(s1)-c1cc(F)ccc1CC2` registered a melting point of 240 to 242 °C.
`CN(C)Cc1ccccc1C1(c2ccc(Cl)cc2)OC(=O)c2ccccc21` (stereo not given) displayed a melting point of 138 to 140 °C.
Consider `O=C(O)c1ccc(OCC2CCN(CCOc3ccc4c(c3)OCO4)CC2)cc1`, for which the melting point is 133 to 136 °C.
As for `C=CCCC(Oc1ccc(C(=O)Cl)cc1)C1CCCCC1` (stereo not given), the figure is 22 to 25 °C; as for `CC(=O)OCC1OC(n2cnc3c(O)nc(Nc4ccccc4)nc32)C(OC(C)=O)C1OC(C)=O` (stereo not given), 234 to 235 °C.
In turn, `CCC1N=NC(c2ccccc2)=C(O)N1C` (stereo not given) gave a melting point of 122 °C.
`c1cc(CN2CCCCC2)cc(OCCCNc2ccnc3ccccc23)c1` gave a melting point of 127 to 128 °C.
As for `COc1ncc(Cl)cc1Br`, the figure is 45 to 47.5 °C; as for `Cn1cnc2cc(NN)ccc2c1=O`, 208 to 211 °C.
`CS(=O)(=O)c1nnc(C(F)(F)F)s1` returned a melting point of 84 °C.
As to `CCCCC(=O)C1(Nc2ccccc2)CCN(CCc2ccccc2)CC1`, the melting point was 71.3 °C.
`COC(=O)c1cc2c(c(OC)c1Br)OCO2` came in with a melting point of 85.5 to 86 °C.
The value for `COCc1nc(C(C)(C)C)c[nH]1` was 65 to 66 °C.
As for `CCC(=O)CC(=O)OCCC#N`, the figure is 98 to 100 °C; as for `O=C(C[N+](=O)[O-])c1ccc2c(c1)CCN2`, 172 to 174 °C.
`Fc1cc(I)ccc1Nc1c(-c2nnc(NCCN3CCOCC3)o2)ccc(F)c1F` showed a melting point of 77 to 80 °C.
As to `CCOC(=O)C(C)(C)OC(=O)c1cc(-n2c(=O)cc(CC)[nH]c2=O)c(F)cc1Cl`, the melting point fell in the range of 166 to 167 °C.
With `CCOC(=O)/C=C/c1ccc(OC(C)=O)c(Cl)c1`, the melting point lay in the range of 59 to 61 °C.
The value for `NC(=O)CC(O)(c1ccc(Br)cc1)c1cccnc1` (stereo not given) was 213 to 214 °C; that for `Cc1cn(-c2cc(NC(=O)c3ccc(C)c(/C=C/n4cnc5c(N)ncnc54)c3)cc(C(F)(F)F)c2)cn1` was 258 °C; that for `COc1ccc2ncc(C#N)c(Nc3ccc4cn[nH]c4c3)c2c1` was > 250 °C.
The molecule `CC(=O)NCCNc1nc(-c2ccc(=O)n(C(C)C)n2)c(-c2ccccc2)nc1N` displayed a melting point of 147 to 149 °C.
As for `Cc1cc(C(=O)NC2CCCCC2)ccc1[N+](=O)[O-]`, the figure is 134 to 141 °C; as for `CCOC(C)=NS(=O)(=O)c1nc(-c2ccccc2Cl)ns1`, 70 to 72 °C; as for `NCc1ccc(O)cc1`, 104 °C.
As for `Fc1ccc2[nH]c3c(c2c1)CCNC3c1ccc2c(c1)OCO2` (stereo not given), the figure is 172 °C; as for `Cn1nccc1-c1ccc2c(ccn2-c2ccc(F)cc2)c1`, 135 to 137 °C.
As for `N#Cc1ccc(C(CC2CCCC2)C(=O)Nc2nccs2)cc1` (stereo not given), the figure is 62 to 64 °C; as for `COc1ccc2cc([C@H](C)C(=O)OCC(CO[N+](=O)[O-])(CO[N+](=O)[O-])[N+](=O)[O-])ccc2c1`, 69 to 71 °C; as for `O=S(=O)(c1cc(C(F)(F)F)[nH]c1-c1ccc(Cl)cc1)C(F)(F)F`, 167 to 169 °C.
Molecule `O=C(/C=C1\CCc2ccc(F)cc21)NC1CC1` yielded a melting point of 124 to 127 °C.

What is called melting point is the temperature of the solid-liquid transition.
